{"source": "PubChem BioAssay AID1963961", "about": "(Molecular Pharmacology Branch, DTP, NCI, 2024);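 further: spheroids exposed to agents for seven days before read-out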", "system": "K98450-129-R-PDC multicell spheroids, viability", "experiment": "Anticancer human tumor K98450-129-R-PDC patient-derived colon adenocarcinoma cell line growth inhibition [PI3K]", "settings": "for viability, T/C: stronger effect = lower value", "how_it_was_run": "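Targeted small molecules plus PI3K inhibitors, half-log dose series from Cmax (default top 10 microM), were applied to heterotypic spheroids of cancer cells with HUVEC and MSCs. Viability indicated growth inhibition.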", "key": {"[1]": {"settings": "curve of first compound, second compound 0.0316 µM"}, "[2]": {"settings": "curve of first compound, second compound 0.1 µM"}, "[3]": {"settings": "curve of first compound, second compound 0.316 µM"}, "[4]": {"settings": "curve of first compound, second compound 1 µM"}, "[5]": {"settings": "second compound 0.0316 µM, first compound 0.0316 µM"}, "[6]": {"settings": "second compound 0.0316 µM, first compound 0.1 µM"}, "[7]": {"settings": "second compound 0.0316 µM, first compound 0.316 µM"}, "[8]": {"settings": "second compound 0.0316 µM, first compound 1 µM"}, "[9]": {"settings": "second compound 0.0316 µM, first compound 3.16 µM"}, "[10]": {"settings": "second compound 0.0316 µM, first compound 10 µM"}, "[11]": {"settings": "second compound 0.1 µM, first compound 0.0316 µM"}, "[12]": {"settings": "second compound 0.1 µM, first compound 0.1 µM"}, "[13]": {"settings": "second compound 0.1 µM, first compound 0.316 µM"}, "[14]": {"settings": "second compound 0.1 µM, first compound 1 µM"}, "[15]": {"settings": "second compound 0.1 µM, first compound 3.16 µM"}, "[16]": {"settings": "second compound 0.1 µM, first compound 10 µM"}, "[17]": {"settings": "second compound 0.316 µM, first compound 0.0316 µM"}, "[18]": {"settings": "second compound 0.316 µM, first compound 0.1 µM"}, "[19]": {"settings": "second compound 0.316 µM, first compound 0.316 µM"}, "[20]": {"settings": "second compound 0.316 µM, first compound 1 µM"}, "[21]": {"settings": "second compound 0.316 µM, first compound 3.16 µM"}, "[22]": {"settings": "second compound 0.316 µM, first compound 10 µM"}, "[23]": {"settings": "second compound 1 µM, first compound 0.0316 µM"}, "[24]": {"settings": "second compound 1 µM, first compound 0.1 µM"}, "[25]": {"settings": "second compound 1 µM, first compound 0.316 µM"}, "[26]": {"settings": "second compound 1 µM, first compound 1 µM"}, "[27]": {"settings": "second compound 1 µM, first compound 3.16 µM"}, "[28]": {"settings": "second compound 1 µM, first compound 10 µM"}}, "data": [{"smiles": "C=CC(=O)N1CCN(c2nc(=O)n(-c3c(C)ccnc3C(C)C)c3nc(-c4c(O)cccc4F)c(F)cc23)C(C)C1", "note": "(stereo not given) + COc1c(OCCCN2CCOCC2)ccc2c3n(c(=NC(=O)c4cnc(N)nc4)nc12)CCN3", "values": [{"measurement": "IC50", "setting": "curve of first compound, second compound 0.00316 µM", "value": 2.76, "unit": "µM"}, {"measurement": "IC50", "setting": "curve of first compound, second compound 0.01 µM", "value": 5, "unit": "µM"}, {"measurement": "IC50", "setting": "[1]", "value": 2.95, "unit": "µM"}, {"measurement": "IC50", "setting": "[2]", "value": 0.692, "unit": "µM"}, {"measurement": "IC50", "setting": "[3]", "value": 0.554, "unit": "µM"}, {"measurement": "IC50", "setting": "[4]", "value": 0.166, "unit": "µM"}, {"measurement": "viability, T/C", "setting": "second compound 0.00316 µM, first compound 0.0316 µM", "value": 98.1, "unit": "%"}, {"measurement": "viability, T/C", "setting": "second compound 0.00316 µM, first compound 0.1 µM", "value": 95.5, "unit": "%"}, {"measurement": "viability, T/C", "setting": "second compound 0.00316 µM, first compound 0.316 µM", "value": 97.4, "unit": "%"}, {"measurement": "viability, T/C", "setting": "second compound 0.00316 µM, first compound 1 µM", "value": 82.1, "unit": "%"}, {"measurement": "viability, T/C", "setting": "second compound 0.00316 µM, first compound 3.16 µM", "value": 45.7, "unit": "%"}, {"measurement": "viability, T/C", "setting": "second compound 0.00316 µM, first compound 10 µM", "value": 44.7, "unit": "%"}, {"measurement": "viability, T/C", "setting": "second compound 0.01 µM, first compound 0.0316 µM", "value": 103, "unit": "%"}, {"measurement": "viability, T/C", "setting": "second compound 0.01 µM, first compound 0.1 µM", "value": 82.8, "unit": "%"}, {"measurement": "viability, T/C", "setting": "second compound 0.01 µM, first compound 0.316 µM", "value": 89.3, "unit": "%"}, {"measurement": "viability, T/C", "setting": "second compound 0.01 µM, first compound 1 µM", "value": 63, "unit": "%"}, {"measurement": "viability, T/C", "setting": "second compound 0.01 µM, first compound 3.16 µM", "value": 57.1, "unit": "%"}, {"measurement": "viability, T/C", "setting": "second compound 0.01 µM, first compound 10 µM", "value": 41.4, "unit": "%"}, {"measurement": "viability, T/C", "setting": "[5]", "value": 116, "unit": "%"}, {"measurement": "viability, T/C", "setting": "[6]", "value": 99.6, "unit": "%"}, {"measurement": "viability, T/C", "setting": "[7]", "value": 73.8, "unit": "%"}, {"measurement": "viability, T/C", "setting": "[8]", "value": 76.2, "unit": "%"}, {"measurement": "viability, T/C", "setting": "[9]", "value": 48.6, "unit": "%"}, {"measurement": "viability, T/C", "setting": "[10]", "value": 29.4, "unit": "%"}, {"measurement": "viability, T/C", "setting": "[11]", "value": 71.9, "unit": "%"}, {"measurement": "viability, T/C", "setting": "[12]", "value": 91.2, "unit": "%"}, {"measurement": "viability, T/C", "setting": "[13]", "value": 61.1, "unit": "%"}, {"measurement": "viability, T/C", "setting": "[14]", "value": 44.9, "unit": "%"}, {"measurement": "viability, T/C", "setting": "[15]", "value": 41.9, "unit": "%"}, {"measurement": "viability, T/C", "setting": "[16]", "value": 28.3, "unit": "%"}, {"measurement": "viability, T/C", "setting": "[17]", "value": 67.7, "unit": "%"}, {"measurement": "viability, T/C", "setting": "[18]", "value": 59.5, "unit": "%"}, {"measurement": "viability, T/C", "setting": "[19]", "value": 66, "unit": "%"}, {"measurement": "viability, T/C", "setting": "[20]", "value": 34.8, "unit": "%"}, {"measurement": "viability, T/C", "setting": "[21]", "value": 19.5, "unit": "%"}, {"measurement": "viability, T/C", "setting": "[22]", "value": 16.3, "unit": "%"}, {"measurement": "viability, T/C", "setting": "[23]", "value": 50.8, "unit": "%"}, {"measurement": "viability, T/C", "setting": "[24]", "value": 61.1, "unit": "%"}, {"measurement": "viability, T/C", "setting": "[25]", "value": 42.2, "unit": "%"}, {"measurement": "viability, T/C", "setting": "[26]", "value": 22.6, "unit": "%"}, {"measurement": "viability, T/C", "setting": "[27]", "value": 15.1, "unit": "%"}, {"measurement": "viability, T/C", "setting": "[28]", "value": 14.2, "unit": "%"}]}, {"smiles": "C=CC(=O)N1CCN(c2nc(=O)n(-c3c(C)ccnc3C(C)C)c3nc(-c4c(O)cccc4F)c(F)cc23)C(C)C1", "note": "(stereo not given) + Cc1nc(NC(=O)N2CCCC2C(N)=O)sc1-c1ccnc(C(C)(C)C(F)(F)F)c1", "values": [{"measurement": "IC50", "setting": "[1]", "value": 4.01, "unit": "µM"}, {"measurement": "IC50", "setting": "[2]", "value": 3.48, "unit": "µM"}, {"measurement": "IC50", "setting": "[3]", "value": 2.63, "unit": "µM"}, {"measurement": "IC50", "setting": "[4]", "value": 1.91, "unit": "µM"}, {"measurement": "IC50", "setting": "curve of first compound, second compound 3.16 µM", "value": 1.33, "unit": "µM"}, {"measurement": "IC50", "setting": "curve of first compound, second compound 10 µM", "value": 0.502, "unit": "µM"}, {"measurement": "viability, T/C", "setting": "[5]", "value": 111, "unit": "%"}, {"measurement": "viability, T/C", "setting": "[6]", "value": 102, "unit": "%"}, {"measurement": "viability, T/C", "setting": "[7]", "value": 97.3, "unit": "%"}, {"measurement": "viability, T/C", "setting": "[8]", "value": 84.5, "unit": "%"}, {"measurement": "viability, T/C", "setting": "[9]", "value": 52.8, "unit": "%"}, {"measurement": "viability, T/C", "setting": "[10]", "value": 33.1, "unit": "%"}, {"measurement": "viability, T/C", "setting": "[11]", "value": 102, "unit": "%"}, {"measurement": "viability, T/C", "setting": "[12]", "value": 94, "unit": "%"}, {"measurement": "viability, T/C", "setting": "[13]", "value": 96.8, "unit": "%"}, {"measurement": "viability, T/C", "setting": "[14]", "value": 77.7, "unit": "%"}, {"measurement": "viability, T/C", "setting": "[15]", "value": 52.4, "unit": "%"}, {"measurement": "viability, T/C", "setting": "[16]", "value": 28.2, "unit": "%"}, {"measurement": "viability, T/C", "setting": "[17]", "value": 102, "unit": "%"}, {"measurement": "viability, T/C", "setting": "[18]", "value": 106, "unit": "%"}, {"measurement": "viability, T/C", "setting": "[19]", "value": 93.6, "unit": "%"}, {"measurement": "viability, T/C", "setting": "[20]", "value": 78.7, "unit": "%"}, {"measurement": "viability, T/C", "setting": "[21]", "value": 44, "unit": "%"}, {"measurement": "viability, T/C", "setting": "[22]", "value": 26.8, "unit": "%"}, {"measurement": "viability, T/C", "setting": "[23]", "value": 90.5, "unit": "%"}, {"measurement": "viability, T/C", "setting": "[24]", "value": 92.7, "unit": "%"}, {"measurement": "viability, T/C", "setting": "[25]", "value": 84.4, "unit": "%"}, {"measurement": "viability, T/C", "setting": "[26]", "value": 69, "unit": "%"}, {"measurement": "viability, T/C", "setting": "[27]", "value": 35.4, "unit": "%"}, {"measurement": "viability, T/C", "setting": "[28]", "value": 22.7, "unit": "%"}, {"measurement": "viability, T/C", "setting": "second compound 3.16 µM, first compound 0.0316 µM", "value": 83.7, "unit": "%"}, {"measurement": "viability, T/C", "setting": "second compound 3.16 µM, first compound 0.1 µM", "value": 85, "unit": "%"}, {"measurement": "viability, T/C", "setting": "second compound 3.16 µM, first compound 0.316 µM", "value": 86.5, "unit": "%"}, {"measurement": "viability, T/C", "setting": "second compound 3.16 µM, first compound 1 µM", "value": 55.7, "unit": "%"}, {"measurement": "viability, T/C", "setting": "second compound 3.16 µM, first compound 3.16 µM", "value": 29.1, "unit": "%"}, {"measurement": "viability, T/C", "setting": "second compound 3.16 µM, first compound 10 µM", "value": 17.6, "unit": "%"}, {"measurement": "viability, T/C", "setting": "second compound 10 µM, first compound 0.0316 µM", "value": 73.9, "unit": "%"}, {"measurement": "viability, T/C", "setting": "second compound 10 µM, first compound 0.1 µM", "value": 79.3, "unit": "%"}, {"measurement": "viability, T/C", "setting": "second compound 10 µM, first compound 0.316 µM", "value": 61.6, "unit": "%"}, {"measurement": "viability, T/C", "setting": "second compound 10 µM, first compound 1 µM", "value": 31.1, "unit": "%"}, {"measurement": "viability, T/C", "setting": "second compound 10 µM, first compound 3.16 µM", "value": 12.9, "unit": "%"}, {"measurement": "viability, T/C", "setting": "second compound 10 µM, first compound 10 µM", "value": 8.56, "unit": "%"}]}, {"smiles": "Cn1ncnc1[C@H]1c2n[nH]c(=O)c3cc(F)cc(c23)N[C@@H]1c1ccc(F)cc1", "values": [{"measurement": "viability, T/C", "setting": "compound 0.000316 µM", "value": "104% [middle of 4 runs]"}, {"measurement": "viability, T/C", "setting": "compound 0.001 µM", "value": "95% [middle of 4 runs]"}, {"measurement": "viability, T/C", "setting": "compound 0.00316 µM", "value": "103% [middle of 4 runs]"}, {"measurement": "viability, T/C", "setting": "compound 0.0316 µM", "value": "104% [middle of 4 runs]"}, {"measurement": "viability, T/C", "setting": "compound 0.1 µM", "value": "95.2% [middle of 4 runs]"}, {"measurement": "IC50", "setting": "curve of compound", "value": "> 0.1", "unit": "µM"}]}]}
